# Results reported in patent US20210154210A1, “Ophthalmic Formulations and Uses Thereof” (priority 2018, published 2021).
# Test system: corneal endothelial cells
# Test: Corneal endothelial cell counting by specular microscopy
# Type: in vivo, rabbits
# Details: for higher cell density compared to negative control group / higher cell density compared to placebo group: 25 ng/mL (group B); for degeneration rate / effect on slowing down and stopping apoptosis and/or autophagy: 25 ng/mL
# Description: All experiments were designed and carried out in a randomized, double blind manner using placebos. Rabbits were housed for one week prior to the study, fed on standard laboratory food and allowed free access to water in a room at standard temperature and humidity conditions in a 12-h light/12-h dark cycle.
# Counting Corneal Cell number:
# Any excess was discarded, and a fresh batch prepared for the next 15-days. Effects of the eye drop on corneal endothelium as well as cell numbers and shapes were observed by means of specular microscopy (NIDEK-CEM 530, Japan) at the end of months 0, 1, 3 and 6. Rabbits were euthanatized by an intravenous injection of Tanax (0.3 mL/kg). Vitreous (0.2 mL) was aspirated with a 25-gauge needle attached to a 5-mL disposable syringe, driven at 3.0 mm from the limbus, and guided toward the center of the eyeball, taking care to avoid bleeding when the needle was introduced (vitreous samples were stored at −80° C. until the analysis). Eye tissue was fixed with 4% formaldehyde and embedded in paraffin for histopathological assessment. The individual values for three replicates were determined and the mean values were reported.
# All analyses were carried out using GraphPad Prism 5.0 (GraphPad Software, San Diego, Calif., USA). Differences were considered to be significant at a level of P 0.001.
# [1] = compared to the negative control group
smiles,measurement,setting,value
"CC(C)(O)[C@@H]1CC[C@](C)([C@H]2[C@@H](O)C[C@@]3(C)[C@@H]4C[C@H](O)[C@H]5C(C)(C)[C@@H](O)CC[C@@]56C[C@@]46CC[C@]23C)O1 [cycloastragenol, Cycloastragenol]",higher cell density compared to negative control group,month 1,about 4%
same,higher cell density compared to placebo group,month 1,about 4%
same,higher cell density compared to negative control group,month 3,~18%
same,higher cell density compared to placebo group,month 3,~18%
same,higher cell density compared to negative control group,month 6,~19%
same,higher cell density compared to placebo group,month 6,~20%
same,degeneration rate,[1],0%
same,effect on slowing down and stopping apoptosis and/or autophagy,[1],100%
same,degeneration rate,compared to the placebo group,0%
same,effect on slowing down and stopping apoptosis and/or autophagy,compared to the placebo group,100%
